In patent US12264175B2, “Compositions and methods for capping RNAS” (Verve Therapeutics, Inc., priority 2020, dated 2025):

What was measured:
T7 RNA polymerase = T7 RNA polymerase (Escherichia phage T7, UniProt P00573); assay: One-pot IVT preparation of 5′ capped mRNA (production yield, full-length purity); type: biochemical
Description: The 5′ end initiator, 1007a, (FIG. 1A) was used to prepare capped mRNAs that encode for ABE and luciferase proteins. In this Example and for all others described herein, the ABE mRNA sequence was MA004 (SEQ. 0001) and the luciferase mRNA sequence was the Photinus pyralis (Firefly) luciferase sequence described in NCBI reference sequence XM_031473197.1. These mRNA can be produced by different methods well known in the art. One of such methods used herein was in vitro transcription (IVT) using T7 polymerase; or in other embodiments, additional RNA polymerase variants. This IVT reaction to produce mRNA used a linearized DNA template that comprised a T7 polymerase promoter and associated regulatory sequences, mRNA coding sequence (CDS), 3′ and 5′ untranslated regions (UTRs), poly A tail, and additional sequence elements to facilitate and modulate mRNA stability and in vivo performance. Prior to IVT, the DNA template was in the form of a plasmid; in other embodiments the DNA template is in the form of a PCR product, synthetic DNA product, or any other double-stranded DNA construct. Linearization of the DNA template with a restriction digestion enzyme was performed in order to promote run-off transcription. The typical IVT reaction included T7 polymerase, DNA template, RNase inhibitor, cap analog, inorganic pyrophosphatase, and the naturally occurring ribonucleoside triphosphates (NTPs) such as GTP, ATP, CTP, and N1-methyl pseudouridine triphosphosphate; in some embodiments NTPs include UTP or modified NTPs such as pseudouridine, 5′methyl cytidine, 5-methoxy uridine, N6-methyl adenosine, and N4-acetyl cytidine. The 1007a 5′ end initiator was added to the IVT reaction along with ATP, GTP, CTP, and N1-methyl pseudouridine triphosphate at a 1:1 initiator-to-NTP molar ratio and additional ratios described in Example 5 (B). Poly A tail was encoded in the DNA template that was added to the mRNA during transcription; in some instances, poly A tail is added to the mRNA after the IVT reaction using an RNA ligase enzyme. Finally, T7 RNA polymerase was added to the mixture and the IVT reaction was run at 37° C. for about 1-4 hours. After IVT, DNase was added to the transcription mixture to remove DNA template; in some instances, residual DNA is removed with chromatography. This mRNA was purified to remove residual reaction products and impurities, and stored in 1 mM citrate buffer. Characterization of production yield and mRNA full-length purity was performed by UV spectrometry and capillary gel electrophoresis methods, which are known in the art. […] Similar IVT and purification process are used to produce mRNA encoding SpCas9, Cas12b, CBE, and other ABEs; in all cases the DNA template, reaction conditions, and purification parameters are optimized for the specific gene of interest.
Similarly, ABE encoding mRNA with 5′ end region, 1107a, (FIG. 1B) was produced and characterized as described in the paragraph above.

RIG-I = assay: Immune stimulation of capped mRNA in HEK-Lucia RIG-I cell reporter model; type: cell-based
Experimental: LNPs are prepared and administered in vivo to mice as in Example 11(A,B). Blood is collected at appropriate time points, typically at intervals between 1-48 hours post-dose and terminal end point, and processed to serum or plasma per techniques well known in the art. Serum or plasma cytokine and chemokine levels are measured using V-PLEX cytokine and chemokine detection kits. Cytokine and chemokine levels are compared to animals treated with buffer alone as well as pre-dose sampling of the treatment animals. In some instances, the immune stimulation of capped mRNA is assessed after in vitro transfection to reporter cell lines such as HEK-Lucia RIG-I cell reporter model, which produces luciferase signal in the presence of IFN-stimulated response elements such as uncapped mRNA. This cell model is cultured and transfected as described in Example 7, and luciferase activity is measured using a luciferase activity kit and plate reader. It is known in the art that uncapped mRNA produces a RIG-I-dependent IFN immune response, and capped mRNA lessens this immune stimulation. […] The results of this example were compared using mRNA made with a commercially available 5′ end initiator, 1002a, as a reference.

HeLa lysate = assay: Translation of capped luciferase mRNA in HeLa lysate in vitro translation kit; type: biochemical; conditions: luciferase encoding mRNA with the 5′ end motif, luminescence, FIG. 5
Experimental: HeLa cells are cultured in RPMI with 10% FBS at 37° C. under 5% CO2 atmosphere. Cells are plated into an appropriately sized well plate per manufacturer's recommended seeding conditions. After overnight incubation, cells are checked for monolayer formation and then transfected using a transfection agent such as MessengerMAX. Solution A: the desired amount of luciferase mRNA is diluted in OptiMEM and mixed with Solution B: MessengerMAX in OptiMEM. After mixing solutions A and B, the mixture is incubated at room temperature for 20 minutes, and then added dropwise to each well of cells. The cells are then incubated at 37° C. for 12-72 hours to allow for expression of mRNA into protein. Cells are harvested and prepared for measuring luciferase protein levels per Promega luciferase assay system protocol. […] For example, luciferase encoding mRNA with 5′ end region motif, 1007a, was added to a commercially available HeLa lysate in vitro translation kit to produce luciferase protein. Luciferase protein activity as measured by luminescent light production in the presence of a luciferin substrate, was measured with a luminescence-detecting plate reader. Relative light units measured per this assay are proportional to the amount of luciferase protein translated from mRNA. […]

T7 RNA polymerase, sequence (P00573 whole entry): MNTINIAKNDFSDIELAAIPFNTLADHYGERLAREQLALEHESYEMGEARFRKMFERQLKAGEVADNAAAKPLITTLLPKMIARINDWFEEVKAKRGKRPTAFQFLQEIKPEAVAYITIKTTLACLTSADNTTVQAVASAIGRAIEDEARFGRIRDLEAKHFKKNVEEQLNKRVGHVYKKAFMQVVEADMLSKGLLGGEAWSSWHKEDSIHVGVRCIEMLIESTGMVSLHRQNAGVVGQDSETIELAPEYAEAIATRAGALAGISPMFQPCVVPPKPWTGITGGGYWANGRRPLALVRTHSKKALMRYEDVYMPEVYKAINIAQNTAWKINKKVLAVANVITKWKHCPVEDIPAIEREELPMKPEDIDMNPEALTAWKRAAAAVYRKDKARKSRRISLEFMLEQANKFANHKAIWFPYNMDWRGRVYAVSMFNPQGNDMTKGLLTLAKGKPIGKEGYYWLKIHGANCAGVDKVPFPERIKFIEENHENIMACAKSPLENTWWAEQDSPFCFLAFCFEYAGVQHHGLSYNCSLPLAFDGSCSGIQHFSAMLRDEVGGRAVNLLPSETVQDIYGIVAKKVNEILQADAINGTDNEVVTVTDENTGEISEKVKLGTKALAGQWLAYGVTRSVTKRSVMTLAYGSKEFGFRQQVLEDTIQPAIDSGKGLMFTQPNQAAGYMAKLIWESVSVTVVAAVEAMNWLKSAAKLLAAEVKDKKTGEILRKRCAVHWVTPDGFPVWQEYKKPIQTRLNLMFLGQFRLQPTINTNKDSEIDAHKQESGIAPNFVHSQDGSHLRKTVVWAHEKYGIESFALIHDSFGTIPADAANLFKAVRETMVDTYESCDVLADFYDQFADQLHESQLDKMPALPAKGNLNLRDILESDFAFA

`COC1C(OP([O-])(=S)OCC2OC(n3cnc4c(=O)[nH]c(N)nc43)C(O)C2O)C(COP(=O)(O)OP(=O)(O)OP(=O)(O)OCC2OC(n3c[n+](C)c4c(=O)[nH]c(N)nc43)C(O)C2O)OC1n1cnc2c(N)ncnc21` (stereo not drawn) [1007a, m^7G(ppp)Am(ps)G] was tested, and the “final production yield of mRNA” value (T7 RNA polymerase; ABE encoding mRNA made with the 5′ end initiator, T7 IVT, FIG. 2) was “about 3.3 mg per 1 ml of IVT reaction”, the mRNA full-length purity (T7 RNA polymerase; ABE encoding mRNA made with the 5′ end initiator, capillary gel electrophoresis, FIG. 3) was “about 88%” and the “amount of full-length mRNA produced” value (T7 RNA polymerase; initiator-to-NTP ratio ranging from 1:1 down to 1:5, FIG. 3) was “did not reduce”. For the same molecule, the “RIG-I activity as compared to uncapped mRNA” value (RIG-I; mRNA with the 5′ end motif, FIG. 8) was “reduced”, the “RIG-I activation as a result of the chemical modifications to the cap structure” value (RIG-I; reference mRNA made with 1002a) was “did not appear to increase” and the “luciferase activity relative to mRNA with initiator 1002a” value (HeLa lysate) was “around 2 x”.
